Assays:
α1 receptors = test: Anti-α1 action: norepinephrine-induced tonic contraction of isolated thoracic aorta; details: tonic contraction by 10^−5 M norepinephrine taken as 100%, guinea pig thoracic aorta
Procedure: The thoracic aorta of each Hartley male guinea pig (body weight: 300-500 g) was excised. A preparation cut in a helical form was suspended under 1 g load in a Magnus cylinder filled with the Tyrode solution which had been aerated with a gas mixture of 95% O2 and 5% CO2 and maintained at 37° C. Using an isometric transducer (“TB-612J”, manufactured by Nihon Kohden Corporation) and a pressure preamplifier (“AP-620G”, manufactured by Nihon Kohden Corporation), variations in tension were measured. The isometric tensions were recorded on a thermal pen-writing recorder (“WT-647G”, manufactured by Nihon Kohden Corporation). Taking the tonic contraction induced by 10^−5 M norepinephrine (NE) as 100%, the percent contractions upon addition of each test drug at 10^−8 M and 10^−7 M were determined and recorded as α1 action.

serotonin-2 receptors = test: Anti-serotonin (5-HT) action: 5-HT-induced contraction of isolated superior mesenteric artery; details: contraction by 10^−5 M 5-HT taken as 100%, guinea pig superior mesenteric artery
Procedure: (2) Anti-serotonin (5-HT) Action
A preparation cut in a helical form was suspended under resting tension of 0.3 g in a Magnus cylinder filled with the Tyrode solution which had been aerated with a gas mixture of 95% O2 and 5% CO2 and maintained at 37° C. Using an isometric transducer (“UL-10”, manufactured by SHINKOH K.K.) and a pressure preamplifier (“DSA-605A”, manufactured by SHINKOH K.K.), variations in tension were measured. The isometric tensions were recorded on a pen-writing recorder (“VP-6537A”, manufactured by NATIONAL K.K.). Taking the contraction induced by 10^−5 M serotonin (5-HT) as 100%, the percent contractions by 10^−5 M 5-HT in the presence of each test drug at 10^−7 M and 10^−6 M were determined as anti-5-HT action.

Structure (SMILES)	Anti α1 action (% of Control) (α1 receptors; test drug 10^−7 M)	Anti α1 action (% of Control) (α1 receptors; test drug 10^−8 M)	Anti 5-HT action (% of Control) (serotonin-2 receptors; test drug 10^−6 M)	Anti 5-HT action (% of Control) (serotonin-2 receptors; test drug 10^−7 M)
CN1CC(=NO)c2c(ccn2CCCCN2CCC(C(=O)c3ccc(F)cc3)CC2)S1(=O)=O [Compound 28, 5-[4-[4-(4-fluorobenzoyl)piperidino]-butyl]-4-hydroxyimino-2-methyl-2,3,4,5-tetrahydropyrrolo[2,3-e][1,2]thiazine 1,1-dioxide]	45.8 % of Control	80.0 % of Control	30.2 % of Control	73.5 % of Control
CN1CCC(=NO)c2c(ccn2CCCCN2CCC(C(=O)c3ccc(F)cc3)CC2)S1(=O)=O [Compound 29, 6-[4-[4-(4-fluorobenzoyl)piperidino]-butyl]-5-hydroxyimino-2-methyl-3,4,5,6-tetrahydro-2H-pyrrolo[2,3-f][1,2]thiazepine 1,1-dioxide]	33.4 % of Control	83.1 % of Control	32.5 % of Control	79.0 % of Control
CN1CC(=O)c2c(ccn2CCCCN2CCC(C(=O)c3ccc(F)cc3)CC2)S1(=O)=O [Compound 22, 5-[4-[4-(4-fluorobenzoyl)piperidino]butyl]-2-methyl-2,3,4,5-tetrahydropyrrolo[2,3-e][1,2]thiazin-4-one 1,1-dioxide]	43.2 % of Control	66.6 % of Control	41.1 % of Control	80.4 % of Control

Reference: patent publication US6743913B2, “Pyrrolothiazine and pyrrolothiazepine compounds having serotonin-2 receptor antagonistic and α-1-blocking action” (Daiichi Suntory Pharma Co., Ltd., priority 1997, dated 2004)
